From patent US8933071B2, “Dimethyl fasudil for inducing polyploidization of megakaryocytes and for treating blood and bone marrow diseases and disorders” (Northwestern University, priority 2008, dated 2015)

Assays:
CMK cells = assay: Polyploidization of CMK cells (DNA content); type: cell-based, human; details: CMK cells
Method: (A) Y10, (B) GIME, and (C) CMK cells were grown in the presence of TPO, SU6656, or vehicle (DMSO) for 72 hours. DNA content was measured by flow cytometry. The percentages of cells that reach a DNA content of ≧8N are boxed in A and C, those equal to 8N are boxed in B. D) CMK cells were grown as in (C), and cell numbers were enumerated at 0, 24, 48 and 72 h.
To study how megakaryocytes switch from a proliferative to endomitotic cell cycle, the Src kinase inhibitor SU6656 is being utilized.
In collaboration with the Broad Institute, a high throughput screen for small molecules was conducted to identify small molecules that preferentially induce polyploidization or differentiation of megakaryocytes. We screened 10,000 compounds from the Broad's extensive collection of small molecules (including known bioactives, kinase and HDAC inhibitors, and natural products) to identify inducers of megakaryocyte polyploidization. […] 6) Data were analyzed using both MetaXpress software and “Cell Profiler,” software designed at MIT and the Broad Institute. […]

[1] = system: CMK (human megakaryocytic leukemia) cells; assay: High throughput screen for inducers of megakaryocyte polyploidization; type: cell-based; details: 10 μM, 72 hours, Hoescht stain, high content imaging
Method: (§1) In collaboration with the Broad Institute, a high throughput screen for small molecules was conducted to identify small molecules that preferentially induce polyploidization or differentiation of megakaryocytes. We screened 10,000 compounds from the Broad's extensive collection of small molecules (including known bioactives, kinase and HDAC inhibitors, and natural products) to identify inducers of megakaryocyte polyploidization. The screen was performed in the following manner: 1) 4,000 CMK (human megakaryocytic leukemia) cells were plated into each well of a 384-well plate, 2) 100 n1 of compounds (yielding a final concentration of 10 μM) were pinned into the wells, 3) plates were incubated at 37° C. for 72 hours, 4) cells were fixed and stained with Hoescht, and 5) plates were imaged using an ImageXpressMICRO high content imager with 20× objective. Nine images per well were collected. 6) Data were analyzed using both MetaXpress software and “Cell Profiler,” software designed at MIT and the Broad Institute. Seventy-two plates containing duplicates of nearly 10,000 small molecules were screened.

Meg-01 = assay: Polyploidization of Meg-01 cells; type: cell-based
GIME cells = type: cell-based; details: 10 μM, 48 hours, DMSO 0.3%
Method: DNA content was then assessed by flow cytometry. Numbers above the bar indicate % of cells ≧8N. b) After 48 hours, GIME cells from a) were stained with anti-CD42 antibodies and the cell surface expression of CD42 was evaluated by flow cytometry.
as §1

[2] = system: non-megakaryocytic cells (CD41-negative); assay: Effect on non-megakaryocytic (CD41-negative) cells in human CD34+ culture; type: cell-based; details: CD41-negative population
Method: FIG. 4 illustrates that DMF induces polyploidization of normal human megakaryocytes and that its activity is restricted to the CD41+ population. Human CD34+ cells were cultured with TPO for 12 days and then fixed and stained with DAPI. DMSO or DMF were added to the culture after 9 days. DNA content was then assessed by flow cytometry. Numbers above the bar indicate % of cells ≧8N.
In collaboration with the Broad Institute, a high throughput screen for small molecules was conducted to identify small molecules that preferentially induce polyploidization or differentiation of megakaryocytes. We screened 10,000 compounds from the Broad's extensive collection of small molecules (including known bioactives, kinase and HDAC inhibitors, and natural products) to identify inducers of megakaryocyte polyploidization. The screen was performed in the following manner: 1) 4,000 CMK (human megakaryocytic leukemia) cells were plated into each well of a 384-well plate, 2) 100 n1 of compounds (yielding a final concentration of 10 μM) were pinned into the wells, 3) plates were incubated at 37° C. for 72 hours, 4) cells were fixed and stained with Hoescht, and 5) plates were imaged using an ImageXpressMICRO high content imager with 20× objective. Nine images per well were collected. 6) Data were analyzed using both MetaXpress software and “Cell Profiler,” software designed at MIT and the Broad Institute. […]

[3] = system: CD41+ megakaryocytes obtained from human MPD bone marrow; type: cell-based; details: ET patient bone marrow, TPO, 5 days
Method: Two lead compounds were tested on samples from both MPD (myeloproliferative disease) patients and AMKL (acute megakaryocytic leukemia) patients. […] Referring to FIG. 8, bone marrow samples from patients with AMKL were cultured in DMSO (control) or DMF (at 5 μM) for 14 days. Colonies were stained with anti-CD41 antibody and visualized by microcopy (not shown). Total numbers of CD41+ megakaryocyte colonies are shown.
Mononuclear cells from bone marrow of patients were obtained by informed consent from patients at Northwestern Feinberg School of Medicine. Mononuclear cells were separated from marrow with Ficoll (GE Healthcare life sciences, Piscataway, N.J.) and resuspended in IMDM (Iscove's Modified Dulbecco's Media) media without serum. The cells were stained with 0.4% trypan blue solution for 5 minutes and live cells were counted. Live cells were assayed in CFU-MK (“Colony forming units-megakaryocytes”) and BFU-E (“Burst forming unit-erythroid”) assays as well as in liquid culture.
Marrow cells from ET patients were also cultured in RPMI with 10% FBS in the presence of recombinant human TPO (thrombopoeitin, 50 ng/ml). […] DNA content of both CD41+ cells and CD41-negative cells was analyzed by utilizing a BD LSRII flow cytometer (BD Biosciences San Jose, Calif.).

In the case of dimethylfasudil [DMF], the induction of polyploidization (CMK cells) is reported as “potent inducer of polyploidization”, the “positive in polyploidization screen” value [1] is reported as “positives” and the induction of polyploidization (Meg-01) is reported as “potent inducer of polyploidization”. For the same substance, the “expression of the late megakaryocyte marker CD42” value (GIME cells) was 66.3%, the “effect on non-megakaryocytic (CD41-negative) cells” value [2] was “no effect” and the “polyploidization of bone marrow megakaryocytes” value [3] was “potently induced polyploidization”.
